Data taken from PubChem BioAssay (NCI).
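Five compound concentrations were applied to cells in 96-well plates for 48 hours; endpoints were derived by simple linear interpolation of the resulting dose-response curve. At the TGI there is no net growth.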

Columns and labels:
Test in all cases: DTP human tumour cell line panel, 48 h
[1] = test system: RPMI-8226 leukemia
[2] = test system: DU-145 prostate
[3] = test system: SF-539 CNS
[4] = test system: PC-3 prostate
[5] = test system: SW-620 colon
[6] = test system: EKVX NSCLC
[7] = test system: MDA-MB-435
[8] = test system: TK-10 renal
[9] = test system: SF-268 CNS
[10] = test system: A498 renal
[11] = test system: OVCAR-8 ovarian
[12] = test system: SNB-75 CNS
[13] = test system: SK-MEL-2 melanoma
[14] = test system: NCI/ADR-RES ovarian
[15] = test system: T-47D breast
[16] = test system: NCI-H522 lung
[17] = test system: NCI-H226 lung
[18] = test system: HL-60(TB) leukemia

| Compound | TGI [1] [µM] | TGI [2] [µM] | TGI [3] [µM] | TGI [4] [µM] | TGI [5] [µM] | TGI [6] [µM] | TGI [7] [µM] | TGI [8] [µM] | TGI [9] [µM] | TGI [10] [µM] | TGI [11] [µM] | TGI [12] [µM] | TGI [13] [µM] | TGI [14] [µM] | TGI [15] [µM] | TGI [16] [µM] | TGI [17] [µM] | TGI [18] [µM] |
| --- | --- | --- | --- | --- | --- | --- | --- | --- | --- | --- | --- | --- | --- | --- | --- | --- | --- | --- |
| CCCCOP(=O)(OCCCC)/C(C#N)=C/c1ccc(C)o1 | > 100 | > 100 | > 100 | 51.4 | > 100 | > 100 | 95.9 | > 100 | > 100 | > 100 | > 100 | > 100 | 77.3 | 64.4 | > 100 | > 100 | 78.8 |  |
| COc1ccc(-c2nc(N(C)C)c3ccccc3n2)cc1 | 24.3 |  | 42.8 | 58.8 | 63.5 | 22.3 | 33.8 | 65.8 | 99.3 |  | > 100 | 40.4 | 41.7 | 36.7 | 49.1 | 27.8 | 21.8 | 32.2 |
| O=C1C=C(c2c(-c3ccccc3)[nH]c3ccccc23)C(=O)N1c1ccccc1 | > 100 | 15.7 | 39.2 | 21.8 | 18.4 | 38.5 | 24.6 | 30.3 | 21.5 | 23.1 | 20.8 |  | 28.4 | 66.2 |  |  | 68.5 | 24.1 |
| O=C1NCC2(CCN(Cc3ccccc3)CC2)N1 | > 100 | > 100 | > 100 | > 100 | > 100 | > 100 | > 100 | > 100 | > 100 |  | > 100 | > 100 | > 100 | > 100 | > 100 | > 100 | > 100 | > 100 |
| Cc1nc2c(O)cccc2c(=O)[nH]1 | > 1000 |  | > 1000 | > 1000 | > 1000 | > 1000 | > 1000 | > 1000 | > 1000 | > 1000 | > 1000 | > 1000 | > 1000 | > 1000 |  | > 1000 | > 1000 | 471 |
| C/C(=N\Nc1nc2ccccc2[nH]1)c1ccncn1 |  |  | > 100 | > 100 | > 100 | 43.2 | > 100 | > 100 |  | 6.38 | > 87.6 | > 74.5 | > 66.1 | 4.54 | > 100 |  |  | 0.054 |
| Cc1ccc(-c2c(C#N)c(-c3ccc([N+](=O)[O-])cc3)c(C#N)c(=O)n2NS(=O)(=O)c2ccc(C)cc2)cc1 | 47 |  | > 100 | > 100 | > 100 | > 100 | > 100 | > 100 | > 100 | > 100 | > 100 | > 100 | > 100 | > 100 |  | > 100 | > 100 | 84.3 |
| NCCCCC(N)C(=O)N1CCN(c2nc(N3CCCC3)c3nc(Cl)c(NCc4ccccc4)nc3n2)CC1 (stereo unspecified) | 44.4 | 33.5 | 37.6 | 32.1 | 47.7 | 36 | 46.6 | 35.6 | 45.2 |  | 31.5 | 32.9 | 35.9 | > 100 |  | 42.1 | 45.6 | 36.1 |
